Experiments:
[1] = system: tobacco plants expressing Pseudomonas fluorescens HPPD; test: Glasshouse spray test, Pseudomonas HPPD transgenic tobacco; format: in vivo; details: Pseudomonas HPPD T1
Source text: Tobacco plants expressing the wild-type HPPD gene of Pseudomonas fluorescens strain 87-79 under operable control of the double enhanced 35S CMV promoter region, Nos3′ terminator and TMV translational enhancer were provided as detailed in Example 4 of WO0246387.
Seed of wild-type tobacco plants, C2 tobacco plants and of the T1 progeny of a further Arabidopsis-HST expressing tobacco line, D2 were planted out in 3 inch pots, grown on, sprayed with compounds 1.1, 2.30 and 3.6 at the rates shown in table 5. Percent damage scores were assessed at 7 DAT. Aside from the presumptive non-transgenic segregants the D2 line containing the Arabidopis HST expression construct offered the highest level of tolerance to the two HST herbicides with the Psuedomonas HPPD, C2 line, offering only marginal tolerance under the conditions of this test.
Transgenic lines of tobacco, soyabean and corn etc. can be engineered to express various heterologous HPPDs derived from, for example Avena (SEQ ID #26), Wheat (SEQ ID #27), Pseudomonas fluorescens (SEQ ID # 25) and Shewanella colwelliana (SEQ ID #28) as, for example, described in WO 02/46387.
Single copy events amongst the T1 plant lines are identified by their 3:1 segregation ratio (wrt kanamycin and or herbicide) and by quantitative RT-PCR. Seed from the thus selected T1 tobacco (var Samsun) lines are sown in 3 inch diameter pots containing 50% peat, 50% John Innes soil no 3. After growth to the 3 leaf stage, plants are sprayed, as described above, in order to test for herbicide tolerance relative to like-treated non-transgenic tobacco plants.
Control tobacco plants and transgenic T1 plants expressing either the Pseudomonas or the wheat HPPD gene are sprayed at 37, 111, 333 and 1000 g/ha rates of HST inhibitors and, for example, compound 2.3.
Plants are assessed and scored for % damage at 16 DAT.

weeds = test: Glasshouse weed control by HST/HPPD (mesotrione) mixtures, post-emergence; format: in vivo; details: for % damage, mesotrione alone / % damage, 1 g ai ha^−1 mesotrione / colby / % damage, no-mesotrione: post-emergence; for % damage, mesotrione alone: mesotrione 1 g/ha; for colby: difference to Colby expectation
Method: Weed seeds are planted out in trays containing suitable soil (for example 50% peat, 50% John Innes soil no 3) and grown in the glass house conditions under 24-27° C. day; 18-21° C. night and approximately a 14 h (or longer in UK summer) photoperiod. Humidity is ˜65% and light levels up to 2000 μmol/m^2 at bench level. Trays are sprayed with test chemicals dissolved in water with 0.2-0.25% X-77 surfactant and sprayed from a boom on a suitable track sprayer moving at about 2 mph in a suitable track sprayer (for example a DeVries spray chamber with the nozzle about 2 inches from the plant tops). Spray volume is suitably 500-1000 l/ha. Sprays are carried out both pre-emergence and over small plants at about 7-12 d post-emergence
Plants are assessed 14 DAT and herbicidal damage is scored on a scale from 0 to 100%. The HST inhibitor compound 2.30 (designated compound A in table 16 and 17), haloxydine (compound 1.1) and compound 2.13 (designated compound AE in tables 16 and 17) are sprayed at rates between 0 and 500 g/ha.

CS(=O)(=O)c1ccc(C(=O)C2C(=O)CCCC2=O)c([N+](=O)[O-])c1 [Mesotrione, mesotrione, reference compound]
% damage observed 16 DAT ([1]; 37 g/ha): 3% | % damage observed 16 DAT ([1]; 111 g/ha): 3% | % damage observed 16 DAT ([1]; 333 g/ha): 43% | % damage observed 16 DAT ([1]; 1000 g/ha): 67% | damage (weeds; 1 g/ha, 14 DAT, pre- and post-emergence sprays): < 10% | % damage, mesotrione alone (weeds; ALOMY, 14 DAT): 0% | % damage, mesotrione alone (weeds; ECHCG, 14 DAT): 8% | % damage, mesotrione alone (weeds; SETFA, 14 DAT): 0%

O=c1c(Cl)c(F)[nH]c(F)c1Cl [Haloxidine]
% damage, 1 g ai ha^−1 mesotrione (weeds; ALOMY, 16 g/ha + 1 g ai/ha mesotrione, 14 DAT): 23% | colby (weeds; ALOMY, 16 g/ha + 1 g ai/ha mesotrione): 10 | % damage, no-mesotrione (weeds; ALOMY, 16 g/ha, 14 DAT): 13% | % damage, 1 g ai ha^−1 mesotrione (weeds; ALOMY, 31 g/ha + 1 g ai/ha mesotrione, 14 DAT): 33% | colby (weeds; ALOMY, 31 g/ha + 1 g ai/ha mesotrione): 7 | % damage, no-mesotrione (weeds; ALOMY, 31 g/ha, 14 DAT): 27% | % damage, 1 g ai ha^−1 mesotrione (weeds; ALOMY, 63 g/ha + 1 g ai/ha mesotrione, 14 DAT): 68% | colby (weeds; ALOMY, 63 g/ha + 1 g ai/ha mesotrione): 15 | % damage, no-mesotrione (weeds; ALOMY, 63 g/ha, 14 DAT): 53% | % damage, 1 g ai ha^−1 mesotrione (weeds; ALOMY, 125 g/ha + 1 g ai/ha mesotrione, 14 DAT): 83% | colby (weeds; ALOMY, 125 g/ha + 1 g ai/ha mesotrione): 5 | % damage, no-mesotrione (weeds; ALOMY, 125 g/ha, 14 DAT): 78% | % damage, 1 g ai ha^−1 mesotrione (weeds; ALOMY, 250 g/ha + 1 g ai/ha mesotrione, 14 DAT): 92% | colby (weeds; ALOMY, 250 g/ha + 1 g ai/ha mesotrione): 2 | % damage, no-mesotrione (weeds; ALOMY, 250 g/ha, 14 DAT): 90% | % damage, 1 g ai ha^−1 mesotrione (weeds; ALOMY, 500 g/ha + 1 g ai/ha mesotrione, 14 DAT): 95% | colby (weeds; ALOMY, 500 g/ha + 1 g ai/ha mesotrione): 0 | % damage, no-mesotrione (weeds; ALOMY, 500 g/ha, 14 DAT): 95% | % damage, 1 g ai ha^−1 mesotrione (weeds; ECHCG, 16 g/ha + 1 g ai/ha mesotrione, 14 DAT): 57% | colby (weeds; ECHCG, 16 g/ha + 1 g ai/ha mesotrione): 18 | % damage, no-mesotrione (weeds; ECHCG, 16 g/ha, 14 DAT): 33% | % damage, 1 g ai ha^−1 mesotrione (weeds; ECHCG, 31 g/ha + 1 g ai/ha mesotrione, 14 DAT): 67% | colby (weeds; ECHCG, 31 g/ha + 1 g ai/ha mesotrione): 11 | % damage, no-mesotrione (weeds; ECHCG, 31 g/ha, 14 DAT): 52% | % damage, 1 g ai ha^−1 mesotrione (weeds; ECHCG, 63 g/ha + 1 g ai/ha mesotrione, 14 DAT): 75% | colby (weeds; ECHCG, 63 g/ha + 1 g ai/ha mesotrione): 15 | % damage, no-mesotrione (weeds; ECHCG, 63 g/ha, 14 DAT): 57% | % damage, 1 g ai ha^−1 mesotrione (weeds; ECHCG, 125 g/ha + 1 g ai/ha mesotrione, 14 DAT): 78% | colby (weeds; ECHCG, 125 g/ha + 1 g ai/ha mesotrione): 6 | % damage, no-mesotrione (weeds; ECHCG, 125 g/ha, 14 DAT): 70% | % damage, 1 g ai ha^−1 mesotrione (weeds; ECHCG, 250 g/ha + 1 g ai/ha mesotrione, 14 DAT): 97% | colby (weeds; ECHCG, 250 g/ha + 1 g ai/ha mesotrione): 12 | % damage, no-mesotrione (weeds; ECHCG, 250 g/ha, 14 DAT): 83% | % damage, 1 g ai ha^−1 mesotrione (weeds; ECHCG, 500 g/ha + 1 g ai/ha mesotrione, 14 DAT): 100% | colby (weeds; ECHCG, 500 g/ha + 1 g ai/ha mesotrione): 2 | % damage, no-mesotrione (weeds; ECHCG, 500 g/ha, 14 DAT): 98% | % damage, 1 g ai ha^−1 mesotrione (weeds; SETFA, 16 g/ha + 1 g ai/ha mesotrione, 14 DAT): 27% | colby (weeds; SETFA, 16 g/ha + 1 g ai/ha mesotrione): −15 | % damage, no-mesotrione (weeds; SETFA, 16 g/ha, 14 DAT): 42% | % damage, 1 g ai ha^−1 mesotrione (weeds; SETFA, 31 g/ha + 1 g ai/ha mesotrione, 14 DAT): 82% | colby (weeds; SETFA, 31 g/ha + 1 g ai/ha mesotrione): 13 | % damage, no-mesotrione (weeds; SETFA, 31 g/ha, 14 DAT): 68% | % damage, 1 g ai ha^−1 mesotrione (weeds; SETFA, 63 g/ha + 1 g ai/ha mesotrione, 14 DAT): 92% | colby (weeds; SETFA, 63 g/ha + 1 g ai/ha mesotrione): 12 | % damage, no-mesotrione (weeds; SETFA, 63 g/ha, 14 DAT): 80% | % damage, 1 g ai ha^−1 mesotrione (weeds; SETFA, 125 g/ha + 1 g ai/ha mesotrione, 14 DAT): 97% | colby (weeds; SETFA, 125 g/ha + 1 g ai/ha mesotrione): 3 | % damage, no-mesotrione (weeds; SETFA, 125 g/ha, 14 DAT): 93% | % damage, 1 g ai ha^−1 mesotrione (weeds; SETFA, 250 g/ha + 1 g ai/ha mesotrione, 14 DAT): 100% | colby (weeds; SETFA, 250 g/ha + 1 g ai/ha mesotrione): 0 | % damage, no-mesotrione (weeds; SETFA, 250 g/ha, 14 DAT): 100% | % damage, 1 g ai ha^−1 mesotrione (weeds; SETFA, 500 g/ha + 1 g ai/ha mesotrione, 14 DAT): 100% | colby (weeds; SETFA, 500 g/ha + 1 g ai/ha mesotrione): 0 | % damage, no-mesotrione (weeds; SETFA, 500 g/ha, 14 DAT): 100%

— patent publication US20110173718A1, “HERBICIDE TOLERANT PLANTS” (SYNGENTA CROP PROTECTION, INC., priority 2008, published 2011)
